Results taken from US7884120B2, “2,4,5-trisubstituted imidazoles and their use as anti-microbial agents” (Lorus Therapeutics Inc., priority 2002, dated 2011).
Converted amounts (≈) assume the structure as drawn.

Tested on: S. aureus, MRSA 1A-218, 1A-318, 1B-374, 1B-315, 1B-185, 1B387 and MSSA ATCC-6538, ATCC-29213
Test: MIC by standard microdilution method against S. aureus (MRSA and MSSA strains)
Type: cell-based
Settings: Staphylococcus aureus; against all 8 strains of S. aureus tested except where indicated; microdilution, Ca-MHB, 35° C., 24 hr; read-out: MIC
Procedure: A standard microdilution method (NCCLS, 2000; Document M7-A5) was used to determine the minimum inhibitory concentrations (MICs) against S. aureus, methicillin-resistant strains (MRSA); 1A-218, 1A-318, 1B-374, 1B-315, 1B-185, 1B387 (Simor et al. 1999 Can Commun Dis Rep; 25:105-108) and methicillin-sensitive strains (MSSA); ATCC-6538 and ATCC-29213. The MICs of some compounds were also determined against other Gram-positive bacteria: Enterococcus faecium (ATCC 51559), Enterococcus faecalis (ATCC-51299, ATCC-29212) and Staphylococcus epidermidis (ATCC-35983).
Mueller-Hinton broth (MHB) is recommended as the medium of choice for susceptibility testing of commonly isolated, rapidly growing aerobic organisms such as the Gram-positive bacteria included in this study. A “cation-adjusted Mueller-Hinton broth” (Ca-MHB) was prepared by first preparing standard MHB from a dehydrated base as recommended by the manufacturer.
Single colonies from fresh agar plates of the different bacterial cultures were sub-cultured overnight in 3 ml of Tryptic soy broth (TSB) at 37° C. with shaking at 250 RPM. After 18-20 hours of incubation, the absorbance at λ=600 nm (OD600) were determined for each culture and adjusted to a final OD600=0.1 (4.2×10^7 cfu/ml). Bacterial suspensions were then diluted 1:200 in sterile Ca-MHB for the in vitro susceptibility test, with each well of the microtitre plate containing approximately 2×10^5 cfu/ml.
Stock solutions of the different test compounds were prepared at concentrations of 1,280 μg/ml, 640 μg/ml, or 320 μg/ml in 50% DMSO (dimethyl sulfoxide). Serial two-fold dilutions were then prepared in 50% DMSO (the working concentrations were 1:10 of the stock concentrations in 100 μl culture suspensions). The filled microtitre plates were sealed in plastic bags and incubated at 35° C. for 24 hr in an ambient air incubator with shaking at 250 RPM. MIC values were determined as the lowest concentration where complete inhibition of the visible bacterial growth was observed by the unaided eye and confirmed by the measurement of the optical density (OD600).

Structure (SMILES)	MIC [µg/mL]
Cc1[nH]c2ccccc2c1-c1nc(-c2ccc(F)cc2)c(-c2ccc(F)cc2)[nH]1 [Compound 7]	4 to 16 (≈ 10.4 to 41.5 µM)
COc1ccc(-c2nc(-c3c(C)[nH]c4ccccc34)[nH]c2-c2ccc(OC)cc2)cc1 [Compound 9]	8 (≈ 19.5 µM)
Cc1[nH]c2ccccc2c1-c1nc(-c2ccccn2)c(-c2ccccn2)[nH]1 [Compound 15]	> 128
COc1ccccc1-c1nc(-c2c(C)[nH]c3ccccc23)[nH]c1-c1ccccc1OC [Compound 17]	16 (≈ 39.1 µM)
Clc1ccc(-c2nc(-c3c[nH]c4ccc(Br)cc34)[nH]c2-c2ccc(Cl)cc2)cc1 [Compound 20]	2 to 4 (≈ 4.14 to 8.28 µM)
Cc1[nH]c2ccccc2c1-c1nc(-c2cccc(Cl)c2)c(-c2cccc(Cl)c2)[nH]1 [Compound 21]	8 to 16 (≈ 19.1 to 38.2 µM)
Cc1ccc(-c2nc(-c3c(C)[nH]c4ccccc34)[nH]c2-c2ccc(C)cc2)cc1 [Compound 23]	4 to 8 (≈ 10.6 to 21.2 µM)
Cc1[nH]c2ccccc2c1-c1nc(-c2cccs2)c(-c2cccs2)[nH]1 [Compound 25]	32 to 64 (≈ 88.5 to 177 µM)
Brc1ccc2[nH]cc(-c3nc(-c4cccs4)c(-c4cccs4)[nH]3)c2c1 [Compound 26]	2 (≈ 4.69 µM)
Cc1[nH]c2ccccc2c1-c1nc(-c2ccncc2)c(-c2ccc(F)cc2)[nH]1 [Compound 27]	32 to 64 (≈ 86.9 to 174 µM)
Fc1ccc(-c2[nH]c(-c3c[nH]c4ccc(Br)cc34)nc2-c2ccncc2)cc1 [Compound 28]	2 (≈ 4.62 µM)
Fc1ccc(-c2[nH]c(-c3c[nH]c4ccccc34)nc2-c2ccccc2)cc1 [Compound 37]	> 128
Cc1[nH]c2ccccc2c1-c1nc(-c2ccc(Oc3ccccc3)cc2)c(-c2ccc(Oc3ccccc3)cc2)[nH]1 [Compound 38]	> 128
Brc1ccc2[nH]cc(-c3nc(-c4ccc(Oc5ccccc5)cc4)c(-c4ccc(Oc5ccccc5)cc4)[nH]3)c2c1 [Compound 39]	> 128
Cc1[nH]c2ccccc2c1-c1nc(-c2ccc(-c3ccccc3)cc2)c(-c2ccc(-c3ccccc3)cc2)[nH]1 [Compound 40]	> 128
Cn1cc(-c2nc3c4ccccc4c4ccccc4c3[nH]2)c2ccccc21 [Compound 47]	> 128
Brc1ccc2[nH]cc(-c3nc(-c4ccccc4)c(-c4ccc(-c5ccccc5)cc4)[nH]3)c2c1 [Compound 48]	4 to 8 (≈ 8.16 to 16.3 µM)
c1ccc(-c2ccc(-c3[nH]c(-c4c[nH]c5ccccc45)nc3-c3ccccc3)cc2)cc1 [Compound 49]	4 (≈ 9.72 µM)
Brc1ccc2[nH]cc(-c3nc(-c4ccccc4)c(-c4ccc(N5CCCCC5)cc4)[nH]3)c2c1 [Compound 50]	> 64
Clc1ccc(-c2nc(-c3c[nH]c4ccc(Br)cc34)[nH]c2-c2ccc(-c3ccccc3)cc2)cc1 [Compound 51]	16 (≈ 30.5 µM)
Brc1ccc2[nH]cc(-c3nc4c5cc(I)ccc5c5ccc(I)cc5c4[nH]3)c2c1 [Compound 52]	> 64
Ic1ccc2c3ccccc3c3[nH]c(-c4c[nH]c5ccccc45)nc3c2c1 [Compound 53]	1 (≈ 2.18 µM)
c1ccc(-c2[nH]c(-c3c[nH]c4ccccc34)nc2-c2cccc3ccccc23)cc1 [Compound 54]	2 to 4 (≈ 5.19 to 10.4 µM)

Structure (SMILES)	MIC [µg/mL]
c1ccc(-c2[nH]c(-c3c[nH]c4ccccc34)nc2-c2ccc3ccccc3c2)cc1 [Compound 55]	2 (≈ 5.19 µM)
Ic1cccc(-c2nc(-c3c[nH]c4ccccc34)[nH]c2-c2cccc(I)c2)c1 [Compound 56]	1 (≈ 1.7 µM)
COc1ccc(-c2nc(-c3ccc(O)cc3)[nH]c2-c2ccc(OC)cc2)cc1 [Compound 57]	16 (≈ 43 µM)
Oc1ccc(-c2nc(-c3ccc(Br)cc3)c(-c3ccccc3)[nH]2)cc1 [Compound 58]	4 (≈ 10.2 µM)
O=C(O)c1ccc(-c2nc(-c3ccc(Br)cc3)c(-c3ccccc3)[nH]2)cc1 [Compound 59]	32 (≈ 76.3 µM)
O=C(O)c1ccc(-c2nc(-c3ccccc3)c(-c3cccc4ccccc34)[nH]2)cc1 [Compound 60]	64 (≈ 164 µM)
Oc1cccc(-c2nc(-c3ccccc3)c(-c3cccc4ccccc34)[nH]2)c1 [Compound 61]	8 (≈ 22.1 µM)
Oc1cccc(-c2nc(-c3ccc(-c4ccccc4)cc3)c(-c3ccccc3)[nH]2)c1 [Compound 62]	2 (≈ 5.15 µM)
Oc1ccc(-c2nc(-c3ccc(-c4ccccc4)cc3)c(-c3ccccc3)[nH]2)cc1 [Compound 63]	2 (≈ 5.15 µM)
Cc1ccc(-c2nc(-c3cccc(O)c3)[nH]c2-c2ccccc2Br)cc1 [Compound 64]	4 (≈ 9.87 µM)
O=C(O)c1ccc(-c2nc(-c3ccc(Br)cc3)c(-c3ccc(Br)cc3)[nH]2)cc1 [Compound 65]	16 (≈ 32.1 µM)
COc1cc(-c2nc(-c3ccc(Cl)cc3)c(-c3ccc(Cl)cc3)[nH]2)cc(OC)c1O [Compound 66]	2 (≈ 4.53 µM)
Cc1ccc([N+](=O)[O-])cc1-c1[nH]c(-c2cccc(O)c2)nc1-c1ccccc1 [Compound 67]	16 (≈ 43.1 µM)
Oc1ccc(-c2nc(-c3cccc(Cl)c3Cl)c(-c3ccccc3)[nH]2)cc1O [Compound 69]	16 (≈ 40.3 µM)
COc1ccc(-c2nc(-c3cccc(Cl)c3Cl)c(-c3ccccc3)[nH]2)cc1O [Compound 70]	8 (≈ 19.5 µM)
Cc1ccc(C)c(-c2nc(-c3cccc(O)c3)[nH]c2-c2ccccc2)c1 [Compound 71]	8 (≈ 23.5 µM)
O=C(O)c1ccc(-c2nc(-c3ccc4c(c3)-c3cc(-c5[nH]c(-c6ccc(C(=O)O)cc6)nc5-c5ccccc5)ccc3C4=O)c(-c3ccccc3)[nH]2)cc1 [Compound 72]	0.5 to 2 (≈ 0.709 to 2.84 µM)
COc1ccc(-c2nc(-c3ccccc3)c(-c3ccccc3)[nH]2)c(OC)c1 [Compound 73]	> 128
COc1ccc(-c2nc(-c3ccc(F)cc3)c(-c3ccccc3)[nH]2)c(OC)c1 [Compound 74]	> 128
Cc1[nH]c2ccc(N)cc2c1-c1nc(-c2ccc(F)cc2)c(-c2ccccc2)[nH]1 [Compound 75]	32 (≈ 83.7 µM)
Fc1ccc(-c2nc(-c3ccc4[nH]ccc4c3)[nH]c2-c2ccccc2)cc1 [Compound 76]	> 128
Cc1[nH]c2ccc([N+](=O)[O-])cc2c1-c1nc(-c2ccc(F)cc2)c(-c2ccccc2)[nH]1 [Compound 77]	> 128
COc1cccc(-c2nc(-c3c[nH]c4ccc(Br)cc34)[nH]c2-c2cccc(OC)c2)c1 [Compound 84]	2 (≈ 4.22 µM)
